# Experimental data published in patent publication US9693996B1, “Chlorophyll c containing degranulation suppressor” (MARUHA NICHIRO CORPORATION, priority 2011, dated 2017).
# Experiments:
# [1] = system: rat basophile derived cell line RBL-2H3; assay: Test for evaluating degranulation suppressing activity (β-hexosaminidase release); assay type: cell-based; conditions: for degranulation suppressing activity (percent degranulation): RBL-2H3 sensitized with anti DNP-IgE, stimulated with DNP-albumin, control group taken as 100%
# Experimental: First, the rat basophile derived cell line RBL-2H3 was diluted with a DMEM medium (product of SIGMA) containing 10% fetal bovine serum (hereinafter referred to as FBS) to give a density of 2.5×10^5 cells/ml, dispensed on a 24-well culture plate in a volume of 1 ml/well, and cultured overnight at 37° C. under conditions of 5% CO2 and 100% humidity. After removing the culture supernatant, the cell surfaces were washed with 1 ml/well of a phosphate buffer solution (hereinafter referred to as PBS) and an anti DNP-IgE solution prepared by diluting mouse monoclonal anti-dinitrophenol (product of SIGMA) with a DMEM medium to give a concentration of 50 ng/ml was added in a volume of 500 μl/well, followed by incubation for 2 hours at 37° C. under conditions of 5% CO2 and 100% humidity. After the end of incubation, the anti DNP-IgE solution was removed and washing was done using 1.5 ml/well of a buffer solution containing 137 mM NaCl (product of nacalai tesque), 2.7 mM KCl (JUNSEI CHEMICAL), 1.8 Mm CaCl2.2H2O (JUNSEI CHEMICAL), 1 mM MgCl2. 6H2O (JUNSEI CHEMICAL), 5.6 mM glucose (Wako Pure Chemical Industries), 20 mM HEPES (Wako Pure Chemical Industries) and 0.1% BSA (the buffer solution being a modified Tyrode buffer which is hereinafter referred to as “MT buffer”); this procedure was repeated twice. Next, an MT buffer containing 0.5% of a chlorophyll, i.e., an authentic sample of chlorophyll a (product of DHI), an authentic sample of chlorophyll b (product of DHI), an authentic sample of chlorophyll c2 (product of DHI), or an authentic sample of chlorophyll d (purified from cyanobacteria adhering to surfaces of red algae, by referring to Non-Patent Documents 10 and 11, for example) was added in a volume of 490 μl/well and incubation was conducted for 10 minutes at 37° C. under conditions of 5% CO2 and 100% humidity. To a control group that would not undergo suppression of the degranulation reaction, an MT buffer containing 0.5% ethanol was added. After 10-min incubation, Albumin, dinitrophenyl (product of SIGMA) was added to give a concentration of 200 ng/ml and the mixture was stirred to homogeneity, followed by 30-min incubation at 37° C. under conditions of 5% CO2 and 100% humidity. After the end of incubation, the mixture was ice-cooled for 10 minutes to quench the reaction and 500 μl of the supernatant was recovered. To the cells from which the culture supernatant was recovered, Cell Lysate buffer (product of SIGMA) was added in a volume of 500 μl/well and thereafter an ultrasonic cell disrupter was used to form a homogeneous cell lysate which was recovered in a volume of 500 μl. The culture supernatant and the cell lysate were dispensed on a 96-well plate, each in a volume of 50 μl/well, and incubated at 37° C. for 5 minutes. After the end of incubation, an aqueous solution containing 100 mM citric acid and 3.3 mM p-nitrophenyl-2-acetoamido-2-deoxy-β-D-glucopyranoside (product of Wako Pure Chemical Industries) (the aqueous solution is hereinafter referred to as a “substrate solution”) was added in a volume of 100 μl/well and after thorough mixing, incubation was conducted at 37° C. for 25 minutes. After the end of incubation, an aqueous solution containing 2 M glycine (the aqueous solution is hereinafter referred to as a “reaction quencher”) was added in a volume of 100 μl/well and thorough mixing was conducted to quench the reaction; thereafter, a plate reader was used to measure the absorbance at 405 nm. Through this sequence of reactions, degranulation occurred and the activity of β-hexosaminidase contained in the granules was measured to calculate the proportion of granules released from the cells to the culture supernatant. […]
# [2] = system: rat basophile derived cell line RBL-2H3; assay: Test for evaluating percent cell survival (WST-1); assay type: cell-based; conditions: RBL-2H3, 40 min incubation
# Experimental: The rat basophile derived cell line RBL-2H3 diluted to the same concentration as in Example 1 was dispensed on a 96-well culture plate in a volume of 0.1 ml/well and cultured overnight at 37° C. under conditions of 5% CO2 and 100% humidity. After removing the culture supernatant, the cell surfaces were washed with 1 ml/well of PBS and then an MT buffer containing an authentic sample of chlorophyll c2 at the same concentrations by dry weight as in Example 1 was added in a volume of 100 μl/well and incubation was conducted for 40 minutes at 37° C. under conditions of 5% CO2 and 100% humidity. To a control group that would not undergo suppression of the degranulation reaction, an MT buffer containing 0.5% ethanol was added. After 40-min incubation, WST-1 reagent (product of DOJINDO) was added in a volume of […] and the mixture was incubated for 30 minutes at 37° C. under conditions of 5% CO2 and 100% humidity. After the end of incubation, the mixture was left to stand at room temperature for 10 minutes and then the absorbance at 450 nm was measured to evaluate the percent cell survival.
Compound,degranulation suppressing activity (percent degranulation) [1],percent cell survival (cytotoxicity) [2],degranulation suppressing activity (percent degranulation) ([1]; listed as Fr. J),"concentration at which degranulation suppressing activity was already apparent ([1]; by dry weight, RBL-2H3, FIG. 1)"
"C=Cc1c(C)c2cc3nc(c4c5[n-]c(cc6nc(cc1[n-]2)C(C)=C6CC)c(C)c5C(=O)[C@@H]4C(=O)OC)[C@@H](CCC(=O)OC/C=C(\C)CCC[C@H](C)CCC[C@H](C)CCCC(C)C)[C@@H]3C.[Mg+2] [chlorophyll a, reference compound]",no degranulation suppressing activity at all,–,–,–
C=CC1=C(C)C2=NC1=CC1=C(C)C3=C([O-])[C@H](C(=O)OC)C(=C4N=C(C=c5[nH]c(c(C=C)c5C)=C2)C(C)=C4/C=C/C(=O)[O-])C3=N1.[Mg+2] [chlorophyll c2],exhibit the degranulation suppressing activity in a dose-dependent manner,none of the cell groups treated with the authentic sample of chlorophyll c2 experienced a drop in percent cell survival,found to have the evaluating degranulation suppressing activity,about 0.05 μg/ml
"CCC1=C(C)c2cc3[n-]c(cc4nc(c5c6[n-]c(cc1n2)c(C)c6C(=O)[C@@H]5C(=O)OC)[C@@H](CCC(=O)OC/C=C(\C)CCC[C@H](C)CCC[C@H](C)CCCC(C)C)[C@@H]4C)c(C)c3C=O.[Mg+2] [chlorophyll d, reference compound]",no degranulation suppressing activity at all,–,–,–
"C=Cc1c(C)c2cc3nc(c4c5[n-]c(cc6nc(cc1[n-]2)C(C=O)=C6CC)c(C)c5C(=O)[C@@H]4C(=O)OC)[C@@H](CCC(=O)OC/C=C(\C)CCC[C@H](C)CCC[C@H](C)CCCC(C)C)[C@@H]3C.[Mg+2] [chlorophyll b, reference compound]",no degranulation suppressing activity at all,–,–,–
C=Cc1c(C)c2[nH]c1=CC1=NC(=CC3=C(C)C4=C([O-])[C@H](C(=O)OC)C(=C5N=C(C=2)C(C)=C5/C=C/C(=O)[O-])C4=N3)C(CC)=C1C.[Mg+2] [chlorophyll c1],found to exhibit the degranulation suppressing activity,neither the cell group treated with the authentic sample of chlorophyll c1 nor the cell group treated with the authentic sample of chlorophyll c3 was recognized to experience a drop in the percent cell survival,–,–
C=CC1=C(C)C2=CC3=NC(=C4C5=NC(=C(C)C5=C([O-])[C@@H]4C(=O)OC)C=c4[nH]c(c(C(=O)OC)c4C=C)=CC1=N2)C(/C=C/C(=O)[O-])=C3C.[Mg+2] [chlorophyll c3],found to exhibit the degranulation suppressing activity,neither the cell group treated with the authentic sample of chlorophyll c1 nor the cell group treated with the authentic sample of chlorophyll c3 was recognized to experience a drop in the percent cell survival,–,–
